Experiments:
Cannabinoid receptor 1 [1] = target: T1, Cannabinoid receptor 1 (Rattus norvegicus, UniProt P20272); assay: Binding affinity for the Cannabinoid receptor using [3H]CP-55940 as radioligand
Mus musculus [2] = organism: Mus musculus; assay: Compound was evaluated in mouse model for cannabimimetic activity, expressed as as effective dose for antinociception (TF); type: functional
Mus musculus [3] = organism: Mus musculus; assay: Compound was evaluated in mouse model for cannabimimetic activity, expressed as as effective dose for hypothermia (rectal temperature, RT); type: functional
Mus musculus [4] = organism: Mus musculus; assay: Compound was evaluated in mouse model for cannabimimetic activity, expressed as effective dose for spontaneous activity(SA); type: functional
Cannabinoid receptor 1 [5] = target: T1, Cannabinoid receptor 1; assay: Binding affinity for the cannabinoid brain receptor (CB1) using [3H]CP-55940

T1 sequence (P20272 whole entry): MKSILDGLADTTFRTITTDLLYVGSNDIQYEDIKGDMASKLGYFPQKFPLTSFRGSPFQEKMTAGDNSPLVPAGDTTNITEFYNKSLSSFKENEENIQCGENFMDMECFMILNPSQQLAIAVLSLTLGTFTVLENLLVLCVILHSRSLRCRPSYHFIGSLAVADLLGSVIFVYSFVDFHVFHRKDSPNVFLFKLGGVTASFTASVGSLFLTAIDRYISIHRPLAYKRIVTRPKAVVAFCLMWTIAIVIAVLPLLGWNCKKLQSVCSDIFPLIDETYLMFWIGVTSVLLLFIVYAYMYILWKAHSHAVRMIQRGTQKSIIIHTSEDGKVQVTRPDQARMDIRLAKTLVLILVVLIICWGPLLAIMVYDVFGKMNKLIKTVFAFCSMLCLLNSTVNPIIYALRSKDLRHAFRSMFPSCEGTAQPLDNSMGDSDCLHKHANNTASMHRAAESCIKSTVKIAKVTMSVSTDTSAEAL

Compound | Ki (Cannabinoid receptor 1 [1]) [nM] | ED50 (Mus musculus [2]) [µmol/kg] | ED50 (Mus musculus [3]) [µmol/kg] | ED50 (Mus musculus [4]) [µmol/kg] | Ki (Cannabinoid receptor 1 [5]) [nM]
CCCCCCC(C)(C)c1cc(O)c2c(c1)OC(C)(C)[C@@H]1CC=C(CO)C[C@@H]21 | 0.73 | 0.02 | 0.05 | 0.01 | 
CCCCC[C@@H](C)[C@H](C)c1cc(O)c2c(c1)OC(C)(C)[C@@H]1CC=C(C)C[C@@H]21 |  | 0.03 | 0.07 | 0.03 | 0.46
CCCCC[C@@H](C)[C@H](C)c1cc(O)c2c(c1)OC(C)(C)[C@@H]1CC=C(CO)C[C@@H]21 |  | 0.03 | 0.02 | 0.01 | 0.49
CCCCCCC(C)(C)c1cc(O)c2c(c1)OC(C)(C)[C@@H]1CC=C(C)C[C@@H]21 |  | 0.14 | 0.15 | 0.27 | 0.77
